The conditions of series [1]: literature, qualitative; cited from earlier work.
The conditions of series [2]: literature, qualitative; cited from earlier work. This is another data set of the same source.
In the next series the test system is HIV (type IIIB). Put plainly: HIV proliferation inhibitory activity: HIV budding from infected U937 cells, evaluated by reverse transcriptase activity. The conditions noted are these: 15 min with compound, then 6 h culture. Type of series: cell-based. Here is the method:
(§1) U937 cells (derived from human lymphocytes) infected with HIV (type IIIB) were cultured in RPMI-1640 medium (Biocell Laboratories) containing Test Compound (I) and 10% fetal bovine serum (FBS) at 37° C. for 15 minutes in a CO2 -incubator. The cultured U937 cells were washed with RPMI-1640 medium and then cultured in RPMI-1640 medium containing 10% FBS at 37° C. for 6 hours in the CO2 -incubator. The degree of inhibition of HIV budding by the test compound was evaluated by the reverse transcriptase activity in a unit culture. Cytotoxicity test was carried out by the MTT method [J. Immunol. Method., 65, 55 (1983)].

In the next series the test system is platelet. The conditions noted are these: 67th Annual Meeting of the Japanese Pharmacological Society (1994); cited from earlier work.
A further series relates to smooth muscle. The conditions noted are these: 113th Meeting of the Japanese Society of Veterinary Science (1992); cited from earlier work.
The test system of another series is actin. The conditions noted are these: 67th Annual Meeting of the Japanese Pharmacological Society (1994); cited from earlier work.
The nature of the next series: in vitro. Type of series: cell-based. The conditions noted are these: human, u937 cells, MTT method. Here is the method: as §1
(In general: Tetrazolium assays rely on reduction of a dye to a coloured formazan, in cell work by metabolically active cells.)

The conditions of series [3]: literature, qualitative; cited from earlier work. The source holds these as a separate data set.

As a reminder, the inhibition is the change of the read-out against control, counted positive when it falls.

`COC(CC1OC(=O)CC(O)CCCC(=O)C(C)C(OC)c2coc(n2)-c2coc(n2)-c2coc(n2)/C=C/CCC1C)C(C)CCC(=O)C(C)C(OC)C(C)/C=C/N(C)C=O` (centres unmarked) [33-Methyldihydrohalichondramide]: the cytotoxicity result in series [1] is “have cytotoxicity”.
As to `COC(CC1OC(=O)CC(O)CCCC(=O)C(C)C(OC)c2coc(n2)-c2coc(n2)-c2coc(n2)/C=C/CCC1C)C(C)CCC(=O)C(C)C(C/C=C/N(C)C=O)OC` (centres unmarked) [Dihydrohalichondramide], the antifungal activity result in series [2] is given as “antifungal activity”. Also, the cytotoxicity entry in series [1] is given as “have cytotoxicity”.
With `COC(CC1OC(=O)CC(O)C/C=C/C(=O)C(C)C(OC)c2coc(n2)-c2coc(n2)-c2coc(n2)/C=C/CCC1C)C(C)CCC(=O)C(C)C(C/C=C/N(C)C=O)OC` (centres unmarked) [Halichondramide], the antifungal activity result in series [2] is given as “antifungal activity”. In addition, the cytotoxicity result in series [1] is reported as “have cytotoxicity”.
Take `COC(CC1OC(=O)CC(O)CC=CC(=O)C(C)C(OC)c2coc(n2)-c2coc(n2)-c2coc(n2)/C=C/CCC1C)C(C)CCC(=O)C(C)C(CCC(=O)O)OC` (centres unmarked) [Isohalichondramide (carboxylic acid form)]: in series [2], the antifungal activity entry was “antifungal activity”. Further, the cytotoxicity result in series [1] was “have cytotoxicity”.
Take `COC(=O)/C=C/CCC(C)C(CC(OC)C(C)CCC(=O)C(C)C(C/C=C/N(C)C=O)OC)OC(=O)CC(O)CC=CC(=O)C(C)C(OC)c1coc(-c2coc(C(N)=O)n2)n1` (centres unmarked) [Isohalichondramide (ester form)]: in series [2], the antifungal activity entry is reported as “antifungal activity”. Also, the cytotoxicity entry in series [1] is reported as “have cytotoxicity”.
Take `COC(CC1OC(=O)CC(O)CC=CC(=O)C(C)C(OC)c2coc(n2)-c2coc(n2)C(=O)NC(=O)/C=C/CCC1C)C(C)CCC(=O)C(C)C(C/C=C/N(C)C=O)OC` (centres unmarked) [Isohalichondramide (imide form)]: in series [2], the antifungal activity result is “antifungal activity”. Besides, the cytotoxicity result in series [1] was “have cytotoxicity”.
`COC(CC1OC(=O)CC(O)CC=CC(=O)C(C)C(OC)c2coc(n2)-c2coc(n2)-c2coc(n2)/C=C/CCC1C)C(C)CCC(=O)C(C)C(C/C=C/N(C)C=O)OC` (centres unmarked) [Isohalichondramide]: in series [2], the antifungal activity result is reported as “antifungal activity”. The cytotoxicity entry in series [1] is reported as “have cytotoxicity”.
For the compound `COC(CC1OC(=O)CC(O)CC(O)CC(=O)C(C)C(OC)c2coc(n2)-c2coc(n2)-c2coc(n2)/C=C/CCC1C)C(C)CCC(=O)C(C)C(C/C=C/N(C)C=O)OC` (centres unmarked) [Jaspisamide A], the cytotoxicity entry in series [1] was “have cytotoxicity”.
With `COC(CC1OC(=O)CC(O)C/C=C/C(=O)C(C)C(OC)c2coc(n2)-c2coc(n2)-c2coc(n2)/C=C/CC(O)C1C)C(C)CCC(=O)C(C)C(C/C=C/N(C)C=O)OC` (centres unmarked) [Jaspisamide B], the cytotoxicity entry in series [1] is on record as “have cytotoxicity”.
Take `COC(CC1OC(=O)CC(O)C/C=C/C(=O)C(C)C(OC)c2coc(n2)-c2coc(n2)-c2coc(n2)/C=C/CCC1C)C(C)CCC(=O)C(C)C(OC)C(C)/C=C/N(C)C=O` (centres unmarked) [Jaspisamide C]: in series [1], the cytotoxicity result was “have cytotoxicity”.
In the case of `COC(CC1OC(=O)CC(OC(N)=O)CCCC(O)C(CO)C(OC)c2coc(n2)-c2coc(n2)-c2coc(n2)/C=C/CC(OC)C1C)C(C)CCC(=O)C(C)C(OC)C(C)/C=C/N(C)C=O` (centres unmarked) [Kabiramide A], the cytotoxicity entry in series [1] is on record as “have cytotoxicity”.
Regarding `COC(CC1OC(=O)CC(OC(N)=O)CCCC(O)C(C)C(OC)c2coc(n2)-c2coc(n2)-c2coc(n2)/C=C/CC(O)C1C)C(C)CCC(=O)C(C)C(OC)C(C)/C=C/N(C)C=O` (centres unmarked) [Kabiramide B], in series [1], the cytotoxicity result is given as “have cytotoxicity”.
For `COC(CC1OC(=O)CC(OC(N)=O)CCCC(O)C(C)C(OC)c2coc(n2)-c2coc(n2)-c2coc(n2)/C=C/CC(OC)C1C)C(C)CCC(=O)C(C)C(OC)C(C)/C=C/N(C)C=O` (centres unmarked) [Kabiramide C], in series [2], the antifungal activity entry is given as “has antifungal activity”.
Turning to `COC(CC1OC(=O)CC(O)CCCC(O)C(C)C(OC)c2coc(n2)-c2coc(n2)-c2coc(n2)/C=C/CC(OC)C1C)C(C)CCC(=O)C(C)C(OC)C(C)/C=C/N(C)C=O` (centres unmarked) [Kabiramide D], the cytotoxicity entry in series [1] is given as “have cytotoxicity”.
In the case of `COC(CC1OC(=O)CC(OC(C)=O)CCCC(O)C(C)C(OC)c2coc(n2)-c2coc(n2)-c2coc(n2)/C=C/CC(OC)C1C)C(C)CCC(=O)C(C)C(OC)C(C)/C=C/N(C)C=O` (centres unmarked) [Kabiramide E], in series [1], the cytotoxicity result was “have cytotoxicity”.
`COC(CC1OC(=O)CC(O)C/C=C/C(=O)C(C)C(OC)c2coc(n2)-c2coc(n2)-c2coc(n2)/C=C/CC(OC)C1C)C(C)CCC(=O)C(C)C(OC(C)=O)C(C)/C=C/N(C)C=O` (centres unmarked) [Mycalolide A]: the antifungal activity entry in series [2] was “antifungal activity”. In series [1], the cytotoxicity entry is recorded as “have cytotoxicity”.
On to `COCC(OC)C(=O)OC(CCC(C)C(CC1OC(=O)CC(O)C/C=C/C(=O)C(C)C(OC)c2coc(n2)-c2coc(n2)-c2coc(n2)/C=C/CC(OC)C1C)OC)C(C)C(OC(C)=O)C(C)/C=C/N(C)C=O` (centres unmarked) [Mycalolide B], for which, in the series on HIV (type IIIB) (Human immunodeficiency virus 1, U-937, 10^-7 M), the inhibition at 0.1 µM was 71.4%. The inhibition at 0.01 µM with HIV (type IIIB) (Human immunodeficiency virus 1, U-937, 10^-8 M) came out at 57.1%. Besides, in the series with HIV (type IIIB) (Human immunodeficiency virus 1, U-937, 10^-9 M), the inhibition at 0.001 µM came to 28.6%. The inhibition at 0.0001 µM in the series with HIV (type IIIB) (Human immunodeficiency virus 1, U-937, 10^-10 M) was 14.3%. Also, the anti-platelet activity result in the series on platelet is reported as “anti-platelet activity”. Also, the “inhibitory activity against contraction of smooth muscle” value in the series on smooth muscle was “inhibitory activity against contraction of smooth muscle”. Besides, in the series on actin, the “actin polymerization inhibitory activity” value was “actin polymerization inhibitory activity”. The antifungal activity result in series [2] is “antifungal activity”. Moreover, the cytotoxicity result in series [1] is on record as “have cytotoxicity”. In the series “in vitro” (10^-7 M), this compound came in with a cytotoxicity at 0.1 µM of 4.3%. Also, in the series “in vitro” (10^-8 M), the cytotoxicity at 0.01 µM was found to be 2.2%. Further, the cytotoxicity at 0.001 µM in “in vitro” (10^-9 M) came to 1.5%. In the series “in vitro” (10^-10 M), this compound showed a cytotoxicity at 0.0001 µM of 0.7%.
For the compound `COC(C)C(=O)OC(CCC(C)C(CC1OC(=O)CC(O)C/C=C/C(=O)C(C)C(OC)c2coc(n2)-c2coc(n2)-c2coc(n2)/C=C/CC(OC)C1C)OC)C(C)C(OC(C)=O)C(C)/C=C/N(C)C=O` (centres unmarked) [Mycalolide C], in series [2], the antifungal activity entry is “antifungal activity”. Further, in series [1], the cytotoxicity result is reported as “have cytotoxicity”.
In the case of `COC(CC1OC(=O)CC(O)CCCC(O)C(C)C(OC)c2coc(n2)-c2coc(n2)-c2coc(n2)/C=C/CCC1C)C(C)CCC(=O)C(C)C(OC)C(C)/C=C/N(C)C=O` (centres unmarked) [Tetrahydrohalichondramide], the antifungal activity result in series [2] is on record as “antifungal activity”. In addition, in series [1], the cytotoxicity entry is given as “has cytotoxicity”.
On to `COC(CC1OC(=O)CC(O)CCCC(=O)CC(C)c2coc(n2)-c2coc(n2)-c2coc(n2)/C=C/CC(OC)C1C)C(C)CCC(=O)C(C)C(OC(C)=O)C(C)/C=C/N(C)C=O` (centres unmarked) [Ulpualide A], for which, in series [3], the antibacterial activity result was “antibacterial activity”. Besides, in series [1], the cytotoxicity result is on record as “have cytotoxicity”.
As to `COCC(OC)C(=O)OC(CCC(C)C(CC1OC(=O)CC(O)CCCC(=O)CC(C)c2coc(n2)-c2coc(n2)-c2coc(n2)/C=C/CC(OC)C1C)OC)C(C)C(OC(C)=O)C(C)/C=C/N(C)C=O` (centres unmarked) [Ulpualide B], the antibacterial activity result in series [3] is on record as “antibacterial activity”. Moreover, in series [1], the cytotoxicity result is reported as “have cytotoxicity”.

These data come from US5760065A, “Anti-HIV agent” (priority 1994, dated 1998).
